Data: PubChem BioAssay (NCI)
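Grown in 96-well plates, cells were treated for 48 hours with each compound at five concentrations. Insufficient inhibition: endpoint recorded as highest concentration tested. TGI denotes the concentration required for complete inhibition of growth.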

Columns and labels:
Assay in all cases: DTP human tumour cell line panel, 48 h
[1] = tested on: 786-0 renal
[2] = tested on: A498 renal
[3] = tested on: BT-549 breast
[4] = tested on: CAKI-1 renal
[5] = tested on: HCC-2998 colon
[6] = tested on: HOP-92 NSCLC
[7] = tested on: HS 578T breast
[8] = tested on: HT29 colon
[9] = tested on: IGROV1 ovarian
[10] = tested on: KM12 colon
[11] = tested on: MDA-MB-231 breast
[12] = tested on: MDA-N
[13] = tested on: NCI-H226 lung
[14] = tested on: NCI-H522 lung
[15] = tested on: SK-MEL-28 melanoma
[16] = tested on: SN12C renal
[17] = tested on: SNB-19 CNS
[18] = tested on: SR leukemia
[19] = tested on: SW-620 colon
[20] = tested on: CCRF-CEM leukemia

Row | SMILES | TGI [1] [µM] | TGI [2] [µM] | TGI [3] [µM] | TGI [4] [µM] | TGI [5] [µM] | TGI [6] [µM] | TGI [7] [µM] | TGI [8] [µM] | TGI [9] [µM] | TGI [10] [µM] | TGI [11] [µM] | TGI [12] [µM] | TGI [13] [µM] | TGI [14] [µM] | TGI [15] [µM] | TGI [16] [µM] | TGI [17] [µM] | TGI [18] [µM] | TGI [19] [µM] | TGI [20] [µM]
1 | CC(=O)OC(=C(C#N)C#N)c1nccnc1C(=O)O | > 100 | > 100 | > 100 | > 100 | > 100 | > 100 | > 100 | > 100 | > 100 | > 100 | > 100 | > 100 | > 100 | > 100 | > 100 | > 100 | > 100 | > 100 | > 100 | 
2 | c1ccc(C2(c3ccccc3)S/C(=C3/SC(c4ccccc4)(c4ccccc4)c4ccccc43)c3ccccc32)cc1 | > 100 | > 100 | > 100 | > 100 | > 100 | > 100 | > 100 | > 100 | > 100 | > 100 | > 100 | > 100 | > 100 | > 100 | > 100 | > 100 | > 100 | > 100 | > 100 | > 100
3 | CCOC(=O)CC[C@H](NC(=O)c1ccc(CNc2nc3cc(C(F)(F)F)ccc3nc2C(=O)OCC)cc1)C(=O)OCC | 18.8 | > 100 | 70.3 | 29.5 |  | 48.9 | 19.7 | > 100 | > 53.4 | > 100 | > 48.4 | > 100 |  | 29.1 | > 100 | > 100 | 25.4 | > 100 | > 100 | > 100
4 | COc1ccc(OC)c2sc(N3C(=O)/C(=C/c4ccc(SC)cc4)N=C3c3ccccc3)nc12 | > 100 | > 100 | 88 | > 100 | > 100 | > 100 | 60.8 | 53.3 | > 100 | 52.5 | > 100 | 42.5 |  |  | > 100 | 70.2 | 68.5 | 60.6 | > 100 | 22.2
5 | CC(=O)NC1C(O)C(O)C(CO)OC1n1nc(SCc2ccccc2)c(=O)[nH]c1=O (centres undefined) | > 100 | > 100 | > 100 | > 100 | > 100 | > 100 | > 100 | > 100 | > 100 | > 100 | > 100 | > 100 | > 100 | > 100 | > 100 | > 100 | > 100 | > 100 | > 100 | > 100
6 | CSc1ccc(/C=C/C(=O)c2nc3ccccc3[nH]2)cc1 | 43.6 | 41.2 | 48.4 | 6.19 | 23.7 | > 100 | > 100 | 46.2 | > 100 | 57 | 24.3 | > 100 | 56.9 | 33.5 | > 100 | > 100 | 49.4 | 6.56 | 50.3 | > 100
7 | CC(=O)O[C@H]1C[C@H]2[C@@H]([C@H](OC(C)=O)C[C@@H]3CC4(CC[C@@]32C)OOC2(CCCCC2)OO4)[C@@H]2CC[C@H]([C@H](C)CCC(N)=O)[C@@]12C | 3.52 | 18.1 | 4.86 | 2.14 | 7.41 |  | 19.7 | 14.3 | 0.474 | 3.3 | 4.22 | 3.71 | 6.8 | 1.48 | 24.7 | 5.5 | 20.1 | 1.88 | 5.77 | 3.13
8 | O=C(O)c1[nH]c(=O)[nH]c(=O)c1CN1CCCCC1 | > 100 | > 100 | > 100 | > 100 | > 100 | > 100 | > 100 | > 100 | > 100 | > 100 | > 100 | > 100 | > 100 | > 100 | > 100 | > 100 | > 100 | > 100 | > 100 | > 100
9 | CCOC(=O)c1ccc(OCc2nc3cc(C(F)(F)F)ccc3nc2-c2ccccc2)cc1 | > 100 | > 100 | > 100 | > 100 | > 100 | > 100 | > 100 | > 100 | > 100 | > 100 | > 100 | > 100 | > 100 | > 100 | > 100 | > 100 | > 100 | > 100 | > 100 | > 100
10 | Cc1cc2nn(C3CCCCO3)nc2cc1C (centres undefined) | > 100 | > 100 | > 100 | > 100 | > 100 |  | > 100 | > 100 | > 100 | > 100 | > 100 | > 100 | > 100 | > 100 |  | > 100 | > 100 | > 100 |  | > 100
11 | CCCCCCCCCCCCCCCCCCNc1ccn(C2OC(COP(=O)(O)OCC(COP(=O)(O)OCC3OC(n4cc(C)c(=O)[nH]c4=O)CC3N=[N+]=[N-])OCCCCCCCCCCCCCCCCCC)C(O)C2O)c(=O)n1 (centres undefined) | > 100 | > 100 | > 100 | > 100 | > 100 | > 100 | > 100 | > 100 | > 100 | > 100 | > 100 | > 100 | > 100 | 96.5 | > 100 | > 100 | 50.5 | > 100 | > 100 | > 100
12 | O=P1(N(CCCl)CCCl)Oc2c(Cl)cc(Cl)c(Cl)c2Cc2c(Cl)c(Cl)cc(Cl)c2O1 | > 100 | > 100 | > 100 | > 100 | > 100 | 66.5 | > 100 | > 100 |  | > 100 | > 100 | > 100 | > 100 | > 100 | > 100 | > 100 |  | > 100 | > 100 | > 100
